Inconclusive results are not listed. Calls of active or inactive are those of the source.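 The calls were made as follows: active = signal-lowering compounds whose fitted half-maximal concentration is at most ten times their highest tested dose; inconclusive = flat fit between -30 and -70%, or poor fit; inactive = flat within 30%, signal rising, or potency beyond limit.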
molecular target: POS-1 (Caenorhabditis elegans) binding to mex-3 RNA; test: C. elegans POS-1 RNA interaction disruptors – biochemical, fluorescence polarization, cherry-picked samples, set 2, counter-screen for MEX-5 RNA-binding inhibitor project, dose response (AID 493130); conditions: POS-1/mex-3 RNA fluorescence polarization, 1 h; at 10 µM (top of the series);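 also: POS-1 as maltose binding protein fusion made in E. coli with FITC RNA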

SMILES	activity change, negative = inhibition
CC(=O)Nc1ccc(/C=C/c2nc(-c3ccccc3O)n[nH]2)cc1	inactive
CCN(CC(=O)Nc1ccc(NC(C)=O)cc1)Cc1c(O)ccc2cc(Br)ccc12	inactive
CCCCN(C(=O)c1ccc(C)o1)c1c(N)n(CCCC)c(=O)[nH]c1=O	inactive
CCc1nc2ccccc2c(=O)n1/N=C/c1ccc(OC)cc1	inactive
Cc1cc(=O)n2[nH]c(N)c(N=Nc3ccccc3F)c2n1	inactive
CCOc1ccc(/C=C2\SC(=S)N(Nc3ccccc3)C2=O)cc1OC	inactive
COc1ccc(N=Nc2c(C)[nH][nH]c2=O)cc1	inactive
COc1cc(C=C2C(=O)c3ccccc3C2=O)cc(OC)c1OC	inactive
Cc1c(NC(=O)c2ccc(=O)oc2)c(=O)n(-c2ccccc2)n1C	inactive
CCN(CC)c1ccc(N2C(=O)c3ccccc3C2=O)cc1	inactive
CN1CN(C)c2cccc3cccc1c23	inactive
COc1ccc(NCc2cccnc2)cc1	inactive
CN(C)C1C(=O)C(C(N)=O)=C(O)C2(O)C(=O)C3=C(O)c4c(O)cccc4C(C)(O)C3CC12 (configuration not stated)	inactive
CC(=O)Nc1ccc(/C=N\NC(=O)CNS(=O)(=O)c2ccc([N+](=O)[O-])cc2)cc1	inactive
COc1ccc(NC(=O)/C=C/c2cccc(C(F)(F)F)c2)cn1	inactive
Cc1snc2sc(C(=O)c3ccc(Br)cc3)c(N)c12	inactive
O=C1SC(SCc2ccccc2Cl)=N/C1=C\c1ccc(C(=O)O)cc1	inactive
CCOC(=O)C1=C(C)N=c2s/c(=C\c3cccn3C)c(=O)n2C1c1cccc(OC)c1OC (configuration not stated)	inactive
Cc1c(C#N)c(O)n(CCO)c(=O)c1N=Nc1ccccc1	inactive
Oc1ccc(/C=N/Nc2ncnc3nc[nH]c23)cc1	inactive
O=C(O)c1ccc(N2Cc3ccccc3C2)cc1O	inactive
Oc1c(C=Nc2ccccc2)sc(=S)n1Cc1ccccc1	inactive
CC1=Nc2ccc(C)cc2/C1=C/c1c(N)n2c(S(=O)(=O)C(C)C)nsc2nc1=O	inactive
Cc1cccc(C)c1NC(=O)/C(C#N)=C/c1cccs1	inactive

SMILES	activity change, negative = inhibition
COC(=O)c1ccccc1N=Nc1c(N)n[nH]c1N	inactive
CC(C)(C)OC(=O)NCCCC1=CC2=CC(=O)C(C)(O)C(=O)C2=CO1 (configuration not stated)	inactive
Nc1nonc1C(=O)N/N=C/c1cc(Br)ccc1O	inactive
O=C(NNC(=S)NC(=O)c1ccccc1[N+](=O)[O-])c1ccccc1[N+](=O)[O-]	inactive
COc1cc(/C=C/c2nc(-c3ccccc3O)n[nH]2)cc(OC)c1OC	inactive
OC(CNC1CCCC1)COc1ccccc1Br (configuration not stated)	inactive
Nc1c(NCc2ccccc2)c(=O)[nH]c(=O)n1Cc1ccccc1	inactive
COC/C=C/C1=CC2=CC(=O)C(C)(O)C(=O)C2=CO1 (configuration not stated)	inactive
Cc1c(O)ccc(-c2[nH]ncc2-c2nc3ccccc3s2)c1O	inactive
COc1cccc(C2C=C(c3cccs3)Nc3ncnn32)c1OC (configuration not stated)	inactive
CCn1c(C)nc2c1C(=O)c1ccccc1C2=O	inactive
COc1ccc(N(C(=O)CCl)C(C)(C(=O)Nc2c(C)cccc2C)c2ccccn2)cc1 (configuration not stated)	inactive
Cc1ccc(-c2nc(C=Nc3ccccc3)c(O)o2)cc1	inactive
O=C(O)CCC(=O)NNc1ncnc2ccccc12	inactive
CCc1ccc(N2C(=O)NC(=O)/C(=C\c3cccn3CCOc3ccc(C(C)C)cc3)C2=O)cc1	inactive
CCN(CC)c1ccc(/C=N/N2CCN(c3ccccc3OC)CC2)cc1	inactive
CCOc1c(O)ccc(/C=C2\SC(=S)NC2=O)c1[N+](=O)[O-]	inactive
CC1=CC(=C2C(=O)NC(=S)NC2=O)C=C(C(F)(F)F)N1Cc1ccccc1	inactive
CN(N)N=Nc1nc2c([nH]1)c(=O)n(C)c(=O)n2C	inactive
CN(CC(=O)Nc1cccc(F)c1)C(=O)/C=C/c1cn(Cc2ccccc2)nc1-c1cccnc1	inactive
CCn1c(O)c(N=NC(=O)CNC(=O)/C=C/c2ccco2)c2ccccc21	inactive
Cc1ccc(C(=O)N/N=C/c2ccc(-c3ccc(Br)cc3[N+](=O)[O-])o2)o1	inactive
Cc1cc(/C=C2\C(=O)NC(=O)N(c3cccc(F)c3)C2=O)c(C)n1-c1cc(C(=O)O)cc(C(=O)O)c1	inactive

From PubChem BioAssay AID493130 (Broad Institute, 2011)
